According to patent US11427848B2, “Methods for harvesting mammalian cell cultures” (Amgen Inc., priority 2014, dated 2022):

Tested on: CHO cell lines (Cell line A and Cell line B)
Assay type: cell-based, Chinese Hamster
Method: To test for the effect of toxicity of high polyoxypropylene-polyoxyethylene block copolymer (LUTROL® F68) concentration on cells, two CHO cell lines (Cell line A and Cell line B) expressing different monoclonal antibodies were carried over 10 passages (at 3 days/passage), at an initial seeding density of 8×10^5 cells/ml in 250 ml shake flasks with cell culture media containing 1, 2, 3, 4 or 5 g/L polyoxypropylene-polyoxyethylene block copolymer (LUTROL® F68).
An overall increase in cell density was observed (3.4-6.5×10^6 cells/ml) after 3 days. Viable cell density was normalized to the 1 g/L condition to enable comparison between the different polyoxypropylene-polyoxyethylene block copolymer (LUTROL® F68) concentrations.
The cells grown in media containing 3, 4 or 5 g/L polyoxypropylene-polyoxyethylene block copolymer (LUTROL® F68) were consistently higher over the passages, in which a 10% increase in cell density was measured compared to the 1 g/L condition (p<0.01) (FIG. 7A). The viability was also greater for the higher polyoxypropylene-polyoxyethylene block copolymer (LUTROL® F68) cultures (mean >95%) (FIG. 7B). […] The variation of viable cell density, % viability.

poloxamer 188 [LUTROL® F68]
cell diameter compared to the 1 g/L condition: increased slightly
increase in cell density compared to the 1 g/L condition: 10%
viability (mean): > 95%
